The values below are quoted from earlier work in patent US20250177439A1, “LOW DOSE PRE-MIX FEED FOR TRACE MINERAL SUPPLEMENTATION” (Chemlock Operating LLC d/b/a Chemlock Nutrition, priority 2023, published 2025).

The conditions of this data set: 105-140 ppm zinc compared to 132-177 pmm of zinc.

Take “Zinc chloride hydroxide monohydrate [zinc hydroxy chloride]”: the skin strength result is given as “enhanced the skin strength”.
